Measured values taken from patent US10166246B2, “TGR5 agonist complexes for treating diabetes and cancer” (City of Hope, priority 2014, dated 2019).
Entries after “also recorded” stand apart in the source; their conditions may differ.

Tests used:
[1] = single oral dose; cited from earlier work
[2] = in vivo; cited from earlier work
[3] = molecular target: T1, TGR5 (Homo sapiens, UniProt Q8TDU6); assay: cAMP assay in HEK293 overexpressing TGR5; type: cell-based; design: expressed in transfected cells; host or cells: HEK293 overexpressing TGR5; details: HEK293 cells, in vitro
T1 sequence (Q8TDU6 1-330): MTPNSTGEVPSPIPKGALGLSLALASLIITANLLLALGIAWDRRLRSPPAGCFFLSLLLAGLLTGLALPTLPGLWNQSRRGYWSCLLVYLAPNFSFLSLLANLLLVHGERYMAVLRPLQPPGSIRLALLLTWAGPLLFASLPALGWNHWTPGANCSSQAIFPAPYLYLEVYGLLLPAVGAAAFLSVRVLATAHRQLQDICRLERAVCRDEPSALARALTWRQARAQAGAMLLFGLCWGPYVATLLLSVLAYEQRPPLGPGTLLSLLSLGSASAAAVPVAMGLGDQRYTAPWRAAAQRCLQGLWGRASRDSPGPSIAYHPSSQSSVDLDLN
Method: (§1) Data analysis to determine EC50 values was performed with GraphPad Prism software using a cAMP standard curve and sigmoidal dose-response (variable slope) equation based on dose-response curves with tested compounds.
as §1

[4] = molecular target: T1, TGR5; details: HEK293 cells with human TGR5, pCRE-Luc; 0.1-50 μM test concentrations
Method: HEK293 overexpressing TGR5 cells were transfected 100 ng pCRE-luc reporter along with 10 ng pCMV-beta-galactosidase by HiPerfect (Qiagen).
Complexes were evaluated for their ability to activate TGR5 at 0.1, 0.5, 1, 5.0, 10, 30, and 50 μM test concentrations.
Cell Culture: HEK293 and HEK293-TGR5 overexpressing cells were cultured in high glucose Dulbecco's modified Eagle's medium (DMEM, CELLGRO®, Manassas, Va.) with L-glutamine supplemented with 10% (vol/vol) heat-inactivated fetal bovine serum (Gemini Bio-Products, West Sacramento, Calif.). TGR5-overexpressing HEK293 cells were maintained in G418-containing media until plating. Cells were plated in 24-well plates (5×10^5 cells/well) 24 h before transfection. Prior to transfection, cells were rinsed with PBS, and media was replaced with DMEM without phenol red supplemented with 10% super-stripped FBS.
TGR5 and FXR Luciferase Assay: To evaluate TGR5 activity of compounds, cells were transfected 100 ng pCRE-luc reporter along with pCMV-galactosidase (10 ng) as an internal control for normalization of transfection efficiency. Plasmids were complexed with 2 mL of FUGENE® 6 reagent (Promega, Madison, Wis.) in OPTIMEM® (Invitrogen, Carlsbad, Calif.) and cells were transfected for 18 h. The following day, cells were treated with vehicle and appropriate ligand as indicated. […]

[5] = tested on: db/db mice; assay: 5-week treatment of diabetic db/db mice (body weight, fasting glucose, liver and kidney weight, HbA1c); type: in vivo, mouse; details: for significance of the effect in body weight loss: 30 mg/kg BW (0.057 mmol), 5 weeks
Method: FIG. 8 Effect on body weight of administration of ligand and complex administered […] for 5 weeks in db/db mice (seven per group), with vehicle controls.
For each experiment, there were 8 groups of mice representing the different treatments. […] Eleven-week old male normal and high-fat fed C57BL/6J mice and 7-week old male B6.BKS-Lepr^db (db/db) mice (The Jackson Laboratory, Bar Harbor, Me.) were acclimatized for at least one week on a 12-hour light/dark cycle at 68-72° F., then fed either a standard (10% fat kcal) or high-fat diet containing 60 kcal % fat (Research Diets, Inc., New Brunswick, N.J.) for the duration of the study. All animals were access to their respective diets and water ad libitum. […] For each group, each mouse was given the drugs via i.p. injection, three times a week (Monday, Wednesday, Friday) for a total duration of 5 weeks. Before, and in the course of treatment, body weight, water and food consumption (by weighing before and after weights of water bottles and leftover food in individual cages) were measured 2×per week, while blood glucose measurements were conducted weekly via tail-bleeding while on physical restraint using disposable cone-shaped plastic holders (Kent Scientific). Various tissues (liver, skeletal muscles and adipose tissues) and blood (for lipid, insulin and glucose measurements), were collected and analyzed at the end of the experiment. Before termination of the study, glucose tolerance tests were performed on each mouse on the last week of treatment. For the glucose tolerance test (GTT), after an overnight fast, mice were injected intraperitoneally with glucose (2 g/kg body weight). […] Mice were euthanized by CO2 asphyxiation according to the Association for Assessment and Accreditation of Laboratory Animal Care International guidelines. The different experimental groups had at least 8 animals each.

CN(C)C(=N)NC(=N)N [Metformin, N,N-dimethylbiguanidine]
time until undetectable in blood plasma [1]: ≤ 24 h | decrease of the level of HbA1c [2]: 1-2% | direct activation of TGR5 to induce cAMP formation [3]: not a ligand for the TGR5; also recorded: did not directly activate TGR5

Metformin-OA [DY310]
potency in luciferase assays against TGR5 compared to the native TGR5 agonist [4]: greater potency in luciferase assays than oleanolic acid

metformin-6eCDCA complex [DY305]
significance of the effect in body weight loss ([5]; male db/db mice): not significant | effect on body weight ([5]; male db/db mice, daily for 5 weeks): effective in body weight loss

metformin-6eUDCA complex [DY306]
effect on increase of HbA1c ([5]; db/db mice): dose dependently blocked the increase of HbA1c | glycemic control ([5]; db/db mouse model): improved glycemic control | significance of the effect in body weight loss ([5]; male db/db mice): not significant
